In patent US20260364184A1, “COMPOUND BASED ON OXOISOINDOLINYL-SUBSTITUTED TETRAHYDROPYRIMIDINE-DIONE AND USE THEREOF” (GLUETACS THERAPEUTICS (SHANGHAI) CO., LTD., priority 2023, published 2026) one finds inhibition data, which are given here for 9 compounds.

The test system of test [1] is Human acute lymphocytic leukemia T lymphocytes cell line (CCRF-CEM). Description: Inhibition of CCRF-CEM cell proliferation (CellTiter luminescent viability). The class given is cell-based. As to conditions: Homo sapiens, 96 h, Table IF2, AR inhibitor-based; for inhibition at 0.01 µM: 10 nM, read-out: Inhibition Rate at 10 nM (%); for inhibition at 0.5 µM: 500 nM, read-out: Inhibition Rate at 500 nM (%). The protocol: (§1) The tumor cells used herein were cultured in a cell culture medium listed in table 3 at 37 °C in an incubator with 5% CO2. Prior to experimentation, all cell lines used were correctly identified by STR profiling, and tested negative for mycoplasma contamination using a mycoplasma detection kit through routine screenings.
(§2) The IC50 values of the compounds of the present disclosure (including the compounds in Table 1, Table 2, and Examples 1-468) were determined using the CellTiter-Meiluncell Luminescent Cell Viability Assay Kit from Dalian Meilun Biotech Co., Ltd. The detailed procedure is as follows: Tumor cells were seeded in 96-well cell culture plates at the densities specified in Table 4. On the following day, the test compounds of the present disclosure were subjected to serial dilution. The dilution can be performed according to one of the following two methods: • (1) The first dilution method: The test compounds of the present disclosure (including the compounds in Table 1, Table 2, and Examples 1-468) were subjected to 5-fold serial dilutions starting from a highest concentration of 2000 μM, resulting in a total of 9 concentrations from high to low (2000, 400, 80, 16, 3.2, 0.64, 0.128, 0.0256, 0.00512 μM). Subsequently, 0.5 μL of the test compound dilution was transferred into the 96-well plate containing the cells, with each well containing 100 μL of cell culture medium. […] Into the 96-well plate, the diluted test compounds and corresponding detection reagents were added, resulting in final test compound concentrations of 500 nM and 10 nM, respectively. The experimental procedure is described below using the diluted 2 μM test compound as an example.
(§3) 0.5 μL of the aforementioned diluted compound of the present disclosure (including the compounds in Table 1, Table 2, and Examples 1-468) was added to the seeded cells in 100 μL of medium, yielding a final test compound concentration of 10 nM. After the cells were treated with the compounds of the present disclosure for a specified period, the cell viability assay reagent was added to the culture medium according to the kit's instructions to determine cell viability. […] All controls were treated using the same procedure as the compounds of the present disclosure. The growth inhibition curves for the compounds of the present disclosure were plotted using Prism GraphPad software, and the IC50 values were calculated therefrom.

Test [2] has as its system Human diffuse large B-cell lymphoma cell line (TMD8). The experiment in a line: Inhibition of TMD8 cell proliferation (CellTiter luminescent viability). As to conditions: Homo sapiens, TMD8, 96 h; for inhibition at 0.01 µM: TMD8, 10 nM, read-out: Inhibition Rate at 10 nM (%); for inhibition at 0.5 µM: TMD8, 500 nM, read-out: Inhibition Rate at 500 nM (%). The class given is cell-based. The method, then:
as §1, §2, §3

In test [3] the test system is Human lung cancer cell line (H292). Description: Inhibition of H292 cell proliferation (CellTiter luminescent viability). The class given is cell-based. As to conditions: NCI-H292, Table IM1, CDK9 inhibitor-based, 96 hours; for inhibition at 0.01 µM: H292, 10 nM, read-out: Inhibition Rate at 10 nM (%); for inhibition at 0.5 µM: H292, 500 nM, read-out: Inhibition Rate at 500 nM (%). The protocol: as §1, §2, §3

The target in test [4] is T1, human Cereblon WT GST-tagged protein (CRBN) (Homo sapiens, UniProt Q96SW2).
T1 construct: purchased CISBIO 64BDCRBNPEH
The experiment in a line: CRBN binding by HTRF (Cereblon binding kit). In outline: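 GST-tagged human Cereblon WT was incubated 3 h at room temperature with compound, thalidomide-Re tracer and Eu anti-GST antibody. Final compound concentrations were 10 to 0.00064 µM (7 points) or 2 and 0.5 µM. Inhibition rate was calculated from HTRF 665/620 nm ratios versus solvent and blank controls.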
On the technique in general: In TR-FRET formats the signal depends on donor and acceptor labels being close together.

For test [5], the system named is Human myeloid monocytic leukemia cell line (MV-4-11). Description: Inhibition of MV-4-11 cell proliferation (CellTiter luminescent viability). As to conditions: Homo sapiens, MV4-11, Table IJ2, Tau inhibitor-based, 96 hours; for inhibition at 0.01 µM: MV-4-11, 10 nM, read-out: Inhibition Rate at 10 nM (%); for inhibition at 0.5 µM: MV-4-11, 500 nM, read-out: Inhibition Rate at 500 nM (%). The class given is cell-based. In outline:
(§4)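 Cells are seeded in 96-well plates, cultured at 37 °C, 5% CO2, and treated next day with 5-fold serial compound dilutions (stock series from 2000 μM; 0.5 μL into 100 μL medium). Viability is read by CellTiter-Meiluncell luminescence after the set exposure, and IC50 is taken from growth-inhibition curves.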

Test [6] relates to Human Multiple myeloma cell line (MM.1S). The experiment in a line: Inhibition of MM.1S cell proliferation (CellTiter luminescent viability). The class given is cell-based. As to conditions: Homo sapiens, MM1.S, Table IJ1, Tau inhibitor-based, 96 hours; for inhibition at 0.01 µM: 10 nM, read-out: Inhibition Rate at 10 nM (%); for inhibition at 0.5 µM: 500 nM, read-out: Inhibition Rate at 500 nM (%). The essentials: as §4

Like-named read-outs stand apart in the source and are kept apart here.

T1 sequence (Q96SW2 whole entry): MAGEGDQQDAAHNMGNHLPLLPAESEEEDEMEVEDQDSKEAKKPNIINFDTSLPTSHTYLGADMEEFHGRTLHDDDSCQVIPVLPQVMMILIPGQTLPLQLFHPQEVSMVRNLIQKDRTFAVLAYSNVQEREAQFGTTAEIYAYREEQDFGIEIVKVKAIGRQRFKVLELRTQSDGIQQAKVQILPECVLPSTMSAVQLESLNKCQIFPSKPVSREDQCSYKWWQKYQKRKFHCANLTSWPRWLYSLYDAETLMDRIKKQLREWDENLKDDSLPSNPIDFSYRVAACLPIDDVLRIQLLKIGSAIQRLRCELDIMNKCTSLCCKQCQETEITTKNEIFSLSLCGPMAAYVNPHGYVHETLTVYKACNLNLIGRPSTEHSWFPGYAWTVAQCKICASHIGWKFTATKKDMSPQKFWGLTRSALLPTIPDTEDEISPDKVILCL

By inhibition is commonly meant the relative decrease from the control value, in per cent. Consider `CC1(C)[C@H](NC(=O)c2ccc(N3CCC(CN4CCN(c5cc6c(cc5F)C(=O)N(N5CCC(=O)NC5=O)C6=O)CC4)CC3)nc2)C(C)(C)[C@H]1Oc1ccc(C#N)c(Cl)c1` [GT-05304, N-((1r,3r)-3-(3-chloro-4-cyanophenoxy)-2,2,4,4-tetramethylcyclobutyl)-6-(4-((4-(2-(2,4-dioxotetrahydropyrimidin-1(2H)-yl)-6-fluoro-1,3-dioxoisoindolin-5-yl)piperazin-1-yl)methyl)piperidin-1-yl)nicotinamide], for which the inhibition at 0.01 µM in test [1] fell in the range of 20 to 30%; in test [2] (Table IF1, AR inhibitor-based) it was 30 to 35%. In addition, the inhibition at 0.5 µM in test [1] was in the range of 30 to 40%; in test [2] (Table IF1, AR inhibitor-based) it was 40 to 60%.

For the compound `CC1(C)[C@H](NC(=O)c2ccc(N3CCC(CN4CC5CC(C4)N5c4ccc5c(c4)C(=O)N(N4CCC(=O)NC4=O)C5=O)CC3)nc2)C(C)(C)[C@H]1Oc1ccc(C#N)c(Cl)c1` [GT-05306, N-((1r,3r)-3-(3-chloro-4-cyanophenoxy)-2,2,4,4-tetramethylcyclobutyl)-6-(4-((6-(2-(2,4-dioxotetrahydropyrimidin-1(2H)-yl)-1,3-dioxoisoindolin-5-yl)-3,6-diazabicyclo[3.1.1]heptan-3-yl)methyl)piperidin-1-yl)nicotinamide], in test [1], the inhibition at 0.01 µM lay in the range of 15 to 20% and the inhibition at 0.5 µM was 20 to 30%. For the same compound, in test [2] (Table IF1, AR inhibitor-based), the inhibition at 0.01 µM lay in the range of 10 to 15% and the inhibition at 0.5 µM fell in the range of 20 to 25%.

For `Cn1ncc(-c2nc(NC3CCN(CC4CCN(c5ccc6c(c5)C(=O)N(N5CCC(=O)NC5=O)C6=O)CC4)CC3)ncc2Cl)c1CC1CC1` [GT-08346, 5-(4-((4-((5-chloro-4-(5-(cyclopropylmethyl)-1-methyl-1H-pyrazol-4-yl)pyrimidin-2-yl)amino)piperidin-1-yl)methyl)piperidin-1-yl)-2-(2,4-dioxotetrahydropyrimidin-1(2H)-yl)isoindoline-1,3-dione], in test [3], the inhibition at 0.01 µM is 0 to 5% and the inhibition at 0.5 µM fell in the range of 50 to 60%.

Take `N#CC1(CNc2cccc(-c3cc(NC4CCN(CC5CCN(c6ccc7c(c6)C(=O)N(N6CCC(=O)NC6=O)C7=O)CC5)CC4)ncc3Cl)n2)CCOCC1` [GT-08348, 4-(((5′-chloro-2′-((1-((1-(2-(2,4-dioxotetrahydropyrimidin-1(2H)-yl)-1,3-dioxoisoindolin-5-yl)piperidin-4-yl)methyl)piperidin-4-yl)amino)-[2,4′-bipyridin]-6-yl)amino)methyl)tetrahydro-2H-pyran-4-carbonitrile]: in test [3], the inhibition at 0.01 µM was -5 to 0% and the inhibition at 0.5 µM was 30 to 40%.

On to `N#CC1(CNc2cccc(-c3cc(NC4CCN(CC5CCN(c6cccc7c6C(=O)N(N6CCC(=O)NC6=O)C7=O)CC5)CC4)ncc3Cl)n2)CCOCC1` [GT-08349, 4-(((5′-chloro-2′-((1-((1-(2-(2,4-dioxotetrahydropyrimidin-1(2H)-yl)-1,3-dioxoisoindolin-4-yl)piperidin-4-yl)methyl)piperidin-4-yl)amino)-[2,4′-bipyridin]-6-yl)amino)methyl)tetrahydro-2H-pyran-4-carbonitrile], for which, in test [3], the inhibition at 0.01 µM was in the range of 15 to 20% and the inhibition at 0.5 µM was in the range of 20 to 30%.

With `Cn1c2ccncc2c2ccc(-c3cnc(N4CCN(Cc5ccc6c(c5)CN(N5CCC(=O)NC5=O)C6=O)CC4)c(C(F)(F)F)c3)cc21` [GT-08539, 1-(5-((4-(5-(5-methyl-5H-pyrido[4,3-b]indol-7-yl)-3-(trifluoromethyl)pyridin-2-yl)piperazin-1-yl)methyl)-1-oxoisoindolin-2-yl)dihydropyrimidine-2,4 (1H,3H)-dione], the inhibition at 0.5 µM in test [4] (0.5 μM, read-out: Inhibition Rate at 0.5 μM (%)) was in the range of 20 to 30%; in test [5] it was 50 to 60%; in test [2] (Table IJ3, Tau inhibitor-based) it was 60 to 70%; in test [6], 60 to 70%. The inhibition at 2 µM in test [4] (2 μM, read-out: Inhibition Rate at 2 μM (%)) fell in the range of 60 to 80%. In addition, the inhibition at 0.01 µM in test [5] lay within 30 to 40%; in test [2] (Table IJ3, Tau inhibitor-based) it was 20 to 30%; in test [6] it was 20 to 30%.

For the compound `O=C1CCN(N2C(=O)c3cccc(N4CCC(CN5CCN(c6ccc(-c7ccc8c(c7)[nH]c7ccncc78)cn6)CC5)CC4)c3C2=O)C(=O)N1` [GT-08557, 4-(4-((4-(5-(5H-pyrido[4,3-b]indol-7-yl)pyridin-2-yl)piperazin-1-yl)methyl)piperidin-1-yl)-2-(2,4-dioxotetrahydropyrimidin-1(2H)-yl)isoindoline-1,3-dione], in test [2] (Table IJ3, Tau inhibitor-based), the inhibition at 0.01 µM lay in the range of 0 to 5% and the inhibition at 0.5 µM fell in the range of 60 to 70%. In test [6], the inhibition at 0.01 µM lay within 30 to 40% and the inhibition at 0.5 µM lay within 50 to 60%.

As to `Cc1cc(-c2ccc3c4cnccc4n(C)c3c2)cnc1N1CCN(CC2CCN(c3cccc4c3C(=O)N(N3CCC(=O)NC3=O)C4=O)CC2)CC1` [GT-08563, 2-(2,4-dioxotetrahydropyrimidin-1(2H)-yl)-4-(4-((4-(3-methyl-5-(5-methyl-5H-pyrido[4,3-b]indol-7-yl)pyridin-2-yl)piperazin-1-yl)methyl)piperidin-1-yl)isoindoline-1,3-dione], the inhibition at 0.01 µM in test [5] lay within 15 to 20%; in test [2] (Table IJ3, Tau inhibitor-based), 15 to 20%; in test [6] it was 15 to 20%. The inhibition at 0.5 µM in test [5] lay within 80 to 100%; in test [2] (Table IJ3, Tau inhibitor-based), 80 to 100%; in test [6], 60 to 70%.

Consider `Cn1c2ccncc2c2ccc(-c3cnc(N4CCN(CC5CCN(c6cccc7c6C(=O)N(N6CCC(=O)NC6=O)C7=O)CC5)CC4)c(Cl)c3)cc21` [GT-08564, 4-(4-((4-(3-chloro-5-(5-methyl-5H-pyrido[4,3-b]indol-7-yl)pyridin-2-yl)piperazin-1-yl)methyl)piperidin-1-yl)-2-(2,4-dioxotetrahydropyrimidin-1(2H)-yl)isoindoline-1,3-dione], for which the inhibition at 0.01 µM in test [5] is 0 to 5%; in test [2] (Table IJ3, Tau inhibitor-based), 10 to 15%. Also, the inhibition at 0.5 µM in test [5] fell in the range of 70 to 80%; in test [2] (Table IJ3, Tau inhibitor-based), 80 to 100%.
